According to the NIST ThermoML archive (doi:10.1016/j.jct.2006.02.001):
Several values for one entry are separate records, joined by “and”; a condition that tells them apart may be missing. Equal values may be shown once. ± gives the expanded uncertainty stated by the source.

Columns and labels:
[1] = refractive index (Na D-line) (dimensionless); details: 101.33 kPa, Liquid
[2] = 101 kPa, Liquid

Row | SMILES | refractive index ([1]; 288.15 K) | refractive index ([1]; 293.15 K) | refractive index ([1]; 298.15 K) | refractive index ([1]; 303.15 K) | mass density ([2]; 288.15 K) | mass density ([2]; 293.15 K) | mass density ([2]; 298.15 K) | mass density ([2]; 303.15 K)
1 | Cc1ccccc1 [toluene] | 1.4996 ± 0.0096 | 1.497 ± 0.0096 | 1.4944 ± 0.0096 | 1.4918 ± 0.0096 | 871.41 ± 0.84 kg/m3 | 866.87 ± 0.86 kg/m3 | 862.2 ± 0.88 kg/m3 | 857.46 ± 0.9 kg/m3
2 | Cc1ccccc1C [1,2-dimethylbenzene] | 1.5072 ± 0.0096 | 1.5047 ± 0.0096 | 1.5018 ± 0.0096 | 1.5 ± 0.0096 | 883.29 ± 0.91 kg/m3 | 879.08 ± 0.92 kg/m3 | 875.53 ± 0.94 kg/m3 | 870.73 ± 0.95 kg/m3
3 | Cc1cccc(C)c1 [1,3-dimethylbenzene] | 1.4997 ± 0.0096 | 1.4973 ± 0.0096 | 1.4944 ± 0.0096 | 1.4925 ± 0.0096 | 868.32 ± 0.89 kg/m3 | 864.05 ± 0.91 kg/m3 | 859.77 ± 0.93 kg/m3 | 855.47 ± 0.95 kg/m3
4 | COc1ccccc1 [anisole] | 1.5256 ± 0.0097 | 1.5172 ± 0.0097 and 1.5169 ± 0.0097 | 1.5141 ± 0.0096 | 1.5117 ± 0.0096 | 998.44 ± 1.4 kg/m3 | 993.65 ± 1.5 kg/m3 | 989.15 ± 1.6 kg/m3 | 984.37 ± 1.6 kg/m3
5 | Cc1ccc(C)cc1 [1,4-dimethylbenzene] | 1.4983 ± 0.0096 | 1.4958 ± 0.0096 | 1.4929 ± 0.0096 | 1.4915 ± 0.0096 | 865.25 ± 0.91 kg/m3 | 860.92 ± 0.93 kg/m3 | 856.62 ± 0.94 kg/m3 | 852.25 ± 0.96 kg/m3
6 | Cc1cc(C)cc(C)c1 [1,3,5-trimethylbenzene] | 1.5045 ± 0.0097 | 1.4993 ± 0.0096 | 1.4976 ± 0.0096 | 1.4948 ± 0.0096 | 869.17 ± 0.97 kg/m3 | 865.07 ± 0.98 kg/m3 | 861.06 ± 1 kg/m3 | 856.95 ± 1 kg/m3
7 | c1ccccc1 [benzene] | 1.505 ± 0.0096 | 1.5011 ± 0.0096 | 1.4979 ± 0.0097 | 1.4849 ± 0.0099 | 884.11 ± 3.2 kg/m3 | 876.53 ± 3.3 kg/m3 | 873.6 ± 3.4 kg/m3 | 868.23 ± 3.5 kg/m3
